# According to patent publication US20060111289A1, “Compositions and methods of using Alpha-fetoprotein growth inhibitory peptides” (Serometrix, LLC,, priority 2004, published 2006):
# Where a SMILES comes first, the peptide text is derived from it.
# Tests used:
# [1] = test system: cell cycle gene mRNA in MCF-7 cells; experiment: Quantitative RT-PCR of cell cycle gene mRNA in MCF-7 cells; format: cell-based, human; settings: for Cyclin E1 mRNA levels, Fold Decrease: eight day treatment
# Description: MCF-7 cell cultures grown in charcoal-stripped medium for 24 hours were seeded in 6-well plates and allowed to attach for 24 hours before treatment with 1×10^−7M of the cyclic, linear, or scrambled peptide, or a vehicle control for either 24 or 48 hours. Total RNA was isolated using TriReagent (Molecular Research Center Inc.) and quantified using the Genequant Pro (Ambersham Biosciences).
# Standard curves for each primer were prepared and RNA samples were reverse transcribed and screened for the genes of interest using the One Step RT-PCR kit (Qiagen Inc.) in the Roche Light Cycler. Each sample was run in duplicate, and the entire experiment was replicated resulting in two independent samples for each treatment.
# MCF-7 cell cultures were maintained in medium with charcoal-stripped bovine serum for 24 hours prior to seeding in 6-well plates. Seeding densities varied with treatment time and were aimed at obtaining 80% confluent cell cultures at the time of harvesting; after 24, 48, or 72 hours of treatment. RNA isolation was performed as above.
# MCF-7 cell cultures were maintained as above and seeded in 6-well plates at a low seeding density to obtain cell cultures that were 80% confluent at the end of the treatment. Cell cultures were treated with various concentrations of the cyclic peptide 24 hours after seeding and then every two days until harvesting the cells at day eight post-treatment RNA was isolated from each treatment.
# MCF-7 cells were seeded in DC5 medium into each well of two 6-well plates and allowed to attach for 24 hours at which point the seeding medium was exchanged for serum-free medium for 24 hours. After 24 hours in serum-free medium the cells were re-fed with DC5-stripped medium containing either the vehicle control (DMSO) or GIP (from 1×10^−14 to 1×10^−5 M). Cells were re-fed every 48 hours until they were harvested after eight days of treatment and RNA was isolated. The entire procedure was repeated resulting in two independent RNA isolations. The quantity and quality of RNA isolated from each eight-day exposure for each of the concentrations are shown below. The quantity and quality of RNA obtained from these exposures is sufficient to determine the RNA expression levels of numerous genes.
# MCF-7 cells were seeded at 1×10^6 cells per well in 6-well plates. The cells were incubated for 192 h in medium containing charcoal/dextran-treated BCS and test compounds described above in the proliferation assay. Peptide was administered each day for 8 days. Total RNA was isolated using the RNAqueous 4 PCR kit (Ambion Inc.) or Tri Reagent (Molecular Research Center, Inc.). The quality of the RNAs were assessed by electrophoresis on denaturing agarose gels and were quantified at 260 nm with the Genequant Pro (Amersham Biosciences).
# Details for the quantitative RT-PCR protocol were previously reported. Fasco et al., “Quantitative RNA-polymerase chain reaction-DNA analysis by capillary electrophoresis and laser-induced fluorescence” Anal. Biochem. 224:140-147 (1995). Briefly, RNA samples were reverse transcribed and amplified using the One Step RT-PCR kit (Qiagen Inc.) in the Roche Light Cycler. Total RNA was diluted to […] for all genes assayed except for 28S, which was diluted to 0.001 mg/ml. Diluted total RNA ([…]) was incubated with Qiagen RT-PCR master mix and was reverse transcribed for 30 min at 50° C. Following reverse transcription, samples were heated for 15 min at 95° C. to activate the HotStarTaq DNA polymerase and to simultaneously inactivate the reverse transcriptase. Gozgit et al., “Differential action of polycyclic aromatic hydrocarbons on endogenous estrogen-responsive genes and on a transfected estrogen-responsive reporter in MCF-7 cells” Toxicol. & Appl. Pharmacol. 196:58-67 (2004).
# Gene-specific primers ([…]) were used for the following: Cyclin D3, D1, CDK2, CDK4, CDK6, RB1, Ki67, Cyclin E1, Cyclin BI, and with B-Actin serving as housekeeping (control) gene. […]
# [2] = test system: 6WI-1 mammary tumor cells; experiment: 6WI-1 mammary tumor in 15-day old mouse pups (6 day assay); format: in vivo; parameters: % Inhibition Of Activity: 6WI-1 Pup Ascites: concentration or dose not given beside the values; settings: mouse pups
# From the text: As an alternative model of the 6WI-I mammary tumor in adult mice, an inocula of 1×10^6 tumor cells injected into 15-day old mouse pups provided a 6 day rather than a 12 day assay and replicated the same tumor growth suppression by GIP.
# MCF-7 and GI-101 cells = experiment: ATP luminescence cytostatic assay (6 days); format: cell-based, human; settings: peptide 10^−12 to 10^−8 M
# From the text: FIG. 2 presents exemplary data for both in vivo and in vitro growth suppressive activities of the GIP-derived P149 and control peptides are depicted in GI-101 human ductal breast carcinoma and in MCF-7 human glandular breast carcinoma. • Panels A and A2: GI-101 and MCF-7 xenograft in nude mice administered P149 time-release pellets for 60 days and 30 days, respectively (N=5 mice/group). • Panels B and B2: GI-101 and MCF-7 in cell cultures treated with P149 and P187 at concentrations from 10-8 to 10-12 M for 6 days and assayed by ATP luminescence reagent employing a luciferin-luciferase system. The ATP assay, used to distinguish between cytostasis versus cytotoxicity, was used to confirm that P149 was cytostatic in its cell inhibitory activity at 6 days (see text for details).
# In order to confirm whether P149 was indeed cytostatic, and not cytotoxic, an ATP-based cytostatic assay was performed which measures the decrease in cytosolic ATP during drug (i.e., for example, GIP peptide) treatment. This ATP luminescence assay has long been employed to distinguish between cytostatic versus cytotoxic chemotherapeutic sensitivity of drugs. […] After incubation of the cell cultures for 6 days, cytosolic ATP was extracted, stabilized, and quantitated from a standard curve produced from Berthold LB-96P luminometer readings using a luciferin-luciferase counting reagent.
Molecule,"mRNA levels of CDK2, CDK4, CDK6, Cyclin D1, CCND3, RB1 ([1]; 1×10^−7 M, 24 or 48 hours)","Cyclin D1 mRNA, fold increase ([1]; 8 days) [fold]","Ki67, cdk2, cdk6, and Cyclin B1 mRNA levels ([1]; 8 days)","Rb1 mRNA, fold increase ([1]; 8 days) [fold]","cdk4 mRNA, fold increase ([1]; 8 days) [fold]","Expression of Cyclin D1, RB1 and CDK4 ([1]; 8 days, 0.1 nM (Cyclin D1 and RB1) or 1 pM (CDK4))","Cyclin-E mRNA, fold reduction ([1]; 8 days, 10^−8 to 10^−12 M) [fold]","Expression levels of Cyclin E1 ([1]; 8 days, each of the five concentrations tested)","Ki67, cdk2, cdk6, and Cyclin B1 mRNA levels ([1]; 8 days, listed as cyclic peptide)","Cyclin E1 mRNA levels, Fold Decrease ([1]; concentration 1e−08 (10 nM)) [fold]","Cyclin E1 mRNA levels, Fold Decrease ([1]; concentration 1e−09) [fold]","Cyclin E1 mRNA levels, Fold Decrease ([1]; concentration 1e−10) [fold]","Cyclin E1 mRNA levels, Fold Decrease ([1]; concentration 1e−11) [fold]","Cyclin E1 mRNA levels, Fold Decrease ([1]; concentration 1e−12 (1 pM)) [fold]",% Inhibition Of Activity: 6WI-1 Pup Ascites [2] [%],Growth inhibition / decrease in cytosolic ATP in the ATP luminescence assay (MCF-7 and GI-101 cells)
"CC[C@H](C)[C@H](NC(=O)[C@@H]1CSSC[C@H](NC(=O)[C@H](C)NC(=O)[C@H](CC(C)C)NC(=O)[C@H](CC(C)C)NC(=O)[C@H](CCCCN)NC(=O)[C@H](CC(=O)O)NC(=O)[C@H](CCC(=O)O)NC(=O)[C@H](CO)NC(=O)[C@@H](N)CC(C)C)C(=O)NCC(=O)N[C@@H](CCC(=O)O)C(=O)NCC(=O)N[C@@H](C)C(=O)N[C@@H](C)C(=O)N[C@@H](CC(=O)O)C(=O)N[C@@H]([C@@H](C)CC)C(=O)N[C@@H]([C@@H](C)CC)C(=O)N[C@@H]([C@@H](C)CC)C(=O)NCC(=O)N[C@@H](Cc2c[nH]cn2)C(=O)N[C@@H](CC(C)C)C(=O)N1)C(=O)N[C@@H](CCCNC(=N)N)C(=O)N[C@@H](Cc1c[nH]cn1)C(=O)N[C@@H](CCC(=O)O)C(=O)N[C@@H](CCSC)C(=O)N[C@H](C(=O)N1CCC[C@H]1C(=O)N[C@H](C(=O)N[C@@H](CC(N)=O)C(=O)N1CCC[C@H]1C(=O)NCC(=O)N[C@H](C(=O)O)C(C)C)C(C)C)[C@@H](C)O [Cyclic GIP] (HELM PEPTIDE1{L.S.E.D.K.L.L.A.C.G.E.G.A.A.D.I.I.I.G.H.L.C.I.R.H.E.M.T.P.V.N.P.G.V}$PEPTIDE1,PEPTIDE1,9:R3-22:R3$$$V2.0; N-terminus and C-terminus assumed)",did not result in significant changes in mRNA levels,1.71,no effect,2.4,2.4,increased about two-fold,2.1 to 4.6,greatly reduced,little changes in mRNA expression levels,4.58,3.03,2.07,2.36,3.26,–,–
"KDFIHKQGVALQTMKQELINLVKELVKPQIEAVADFSGLL (listed as Homo sapiens) [P192, reference compound]",–,–,–,–,–,–,–,–,–,–,–,–,–,–,0,not significantly different from the non-treated control
